Source: ChEMBL document CHEMBL1201862, “PubChem BioAssay data set” (2004)
“And” between values parts separate entries of the source, which are not always exact repeats. Equal values may be shown once.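 In this assay, cells in 96-well plates receive the compound at five concentrations for 48 hours. Endpoints are linearly interpolated between the surrounding concentrations. Here, GI50 denotes the concentration required for 50% inhibition of growth.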 The source made the active and inactive calls. Cut-off read from the data, not from the text of the source: active = GI50 up to about 1.1 µM and inactive = higher.

Legend:
Experiment in all cases: NCI anticancer screen, dose series, 48 h
OVCAR-3 = system: OVCAR-3
COLO 205 = system: COLO 205
PC-3 = system: PC-3
IGROV-1 = system: IGROV-1
HT-29 = system: HT-29
786-0 = system: 786-0
SNB-75 = system: SNB-75
HOP-92 = system: HOP-92
T47D = system: T47D
UACC-257 = system: UACC-257
SK-MEL-2 = system: SK-MEL-2
A549 = system: A549
MDA-MB-231 = system: MDA-MB-231
MDA-N = system: MDA-N
DU-145 = system: DU-145
OVCAR-8 = system: OVCAR-8
SW-620 = system: SW-620
HCT-116 = system: HCT-116
NCI/ADR-RES = system: NCI/ADR-RES
MOLT-4 = system: MOLT-4
SN12C = system: SN12C
SK-MEL-5 = system: SK-MEL-5
EKVX = system: EKVX
HCT-15 = system: HCT-15
LOX IMVI = system: LOX IMVI
SF-295 = system: SF-295
UACC-62 = system: UACC-62
ACHN = system: ACHN
Hs-578T = system: Hs-578T
Malme-3M = system: Malme-3M
SF-268 = system: SF-268
SK-OV-3 = system: SK-OV-3
HOP-62 = system: HOP-62
NCI-H460 = system: NCI-H460
SR = system: SR
NCI-H522 = system: NCI-H522
M14 = system: M14
RPMI-8226 = system: RPMI-8226
SK-MEL-28 = system: SK-MEL-28
K562 = system: K562
NCI-H226 = system: NCI-H226
RXF 393 = system: RXF 393
OVCAR-4 = system: OVCAR-4
HCC 2998 = system: HCC 2998
TK-10 = system: TK-10
U-251 = system: U-251
MDA-MB-435 = system: MDA-MB-435
A498 = system: A498
CAKI-1 = system: CAKI-1
KM12 = system: KM12
SF-539 = system: SF-539
MCF7 = system: MCF7
OVCAR-5 = system: OVCAR-5
CCRF-CEM = system: CCRF-CEM
HL-60 = system: HL-60
NCI-H23 = system: NCI-H23
UO-31 = system: UO-31
SNB-19 = system: SNB-19

Measured: GI50

CC(C)(C)[Si](C)(C)OCC1OC(n2cnc3c(N)ncnc32)C(O[Si](C)(C)C(C)(C)C)C1O[Si](C)(C)C(C)(C)C (stereo not given)
35 µM: HCT-15
inactive: OVCAR-3 2.87 µM | COLO 205 19.5 µM | PC-3 2.85 µM | IGROV-1 8.39 µM | HT-29 9.75 µM | 786-0 3.66 µM | SNB-75 13.4 µM | HOP-92 33.7 µM | T47D 11.9 µM | UACC-257 6.17 µM | SK-MEL-2 15.2 µM | A549 9.27 µM | MDA-MB-231 10.9 µM | MDA-N 7.14 µM | DU-145 7.93 µM | OVCAR-8 14.1 µM | SW-620 10.8 µM | HCT-116 6.11 µM | NCI/ADR-RES > 100 µM | MOLT-4 2.04 µM | SN12C 14.9 µM | SK-MEL-5 3.65 µM | EKVX 24.9 µM | LOX IMVI 6.43 µM | SF-295 10.3 µM | UACC-62 7.41 µM | ACHN 6.82 µM | Hs-578T 15.6 µM | Malme-3M 44.9 µM | SF-268 15.1 µM | SK-OV-3 > 10 µM | HOP-62 13.9 µM | NCI-H460 4.11 µM | SR 10.3 µM | NCI-H522 7.76 µM | M14 11.1 µM

N#Cc1nc(CN2C(=O)c3ccccc3C2=O)oc1N
> 100 µM: HCT-15
inactive: OVCAR-3 > 100 µM | COLO 205 > 100 µM | PC-3 > 100 µM | RPMI-8226 > 100 µM | IGROV-1 > 100 µM | HT-29 > 100 µM | 786-0 > 100 µM | SNB-75 > 100 µM | HOP-92 > 100 µM | SK-MEL-28 > 100 µM | T47D > 100 µM | UACC-257 > 100 µM | K562 > 100 µM | SK-MEL-2 > 100 µM | A549 > 100 µM | MDA-MB-231 > 100 µM | MDA-N > 100 µM | DU-145 > 100 µM | OVCAR-8 > 100 µM | NCI-H226 > 100 µM | RXF 393 > 100 µM | SW-620 > 100 µM | HCT-116 > 100 µM | NCI/ADR-RES > 100 µM | MOLT-4 > 100 µM | SN12C > 100 µM | OVCAR-4 > 100 µM | HCC 2998 > 100 µM | SK-MEL-5 > 100 µM | TK-10 > 100 µM | U-251 > 100 µM | SF-295 > 100 µM | MDA-MB-435 > 100 µM | ACHN > 100 µM | Hs-578T > 100 µM | A498 > 100 µM | CAKI-1 > 100 µM | KM12 > 100 µM | SF-539 > 100 µM | Malme-3M > 100 µM | SF-268 > 100 µM | MCF7 > 100 µM | OVCAR-5 > 100 µM | SK-OV-3 > 100 µM | HOP-62 > 100 µM | NCI-H460 > 100 µM | SR > 100 µM | CCRF-CEM > 100 µM | NCI-H522 > 100 µM | M14 > 100 µM

CC(=O)OCC1OC(n2c(-c3ccc(C)cc3)cc(-c3ccco3)c(C#N)c2=O)C(OC(C)=O)C(OC(C)=O)C1OC(C)=O (stereo not given)
inactive: HL-60 2.72 µM | NCI-H460 2.59 µM

COc1cc2oc(=O)ccc2cc1C1OC(=O)C2OC21C (stereo not given)
> 100 µM: HCT-15
inactive: OVCAR-3 > 100 µM | COLO 205 > 100 µM | PC-3 > 100 µM | RPMI-8226 > 100 µM | IGROV-1 > 100 µM | HT-29 > 100 µM | 786-0 > 100 µM | SNB-75 > 100 µM | HOP-92 > 100 µM | SK-MEL-28 > 100 µM | T47D > 100 µM | UACC-257 > 100 µM | K562 > 100 µM | SK-MEL-2 > 100 µM | A549 > 100 µM | MDA-MB-231 > 100 µM | MDA-N > 100 µM | DU-145 > 100 µM | OVCAR-8 > 100 µM | NCI-H23 > 100 µM | NCI-H226 > 100 µM | RXF 393 > 100 µM | SW-620 > 100 µM | HCT-116 > 100 µM | NCI/ADR-RES > 100 µM | MOLT-4 > 100 µM | SN12C > 100 µM | OVCAR-4 > 100 µM | HCC 2998 > 100 µM | SK-MEL-5 > 100 µM | EKVX > 100 µM | TK-10 > 100 µM | UO-31 64.9 µM | U-251 > 100 µM | LOX IMVI > 100 µM | SF-295 > 100 µM | UACC-62 > 100 µM | MDA-MB-435 > 100 µM | ACHN > 100 µM | Hs-578T 54.6 µM | CAKI-1 > 100 µM | KM12 > 100 µM | SF-539 > 100 µM | Malme-3M > 100 µM | SF-268 > 100 µM | MCF7 > 100 µM | OVCAR-5 > 100 µM | SNB-19 > 100 µM | HL-60 > 100 µM | SK-OV-3 > 100 µM | HOP-62 > 100 µM | NCI-H460 > 100 µM | SR > 100 µM | CCRF-CEM > 100 µM | M14 > 100 µM

COC(=O)C1C(O)CCC2CN3CCc4c([nH]c5ccccc45)C3CC21 (stereo not given)
inactive: COLO 205 > 100 µM and > 68.7 µM | RPMI-8226 > 100 µM | IGROV-1 67.1 µM | HT-29 > 100 µM and 72.8 µM | SNB-75 56 µM | HOP-92 > 51.4 µM | T47D > 71.4 µM | UACC-257 > 87.1 µM | K562 > 100 µM | SK-MEL-2 > 100 µM and > 80.5 µM | MDA-MB-231 > 100 µM | MDA-N > 100 µM and > 92 µM | DU-145 > 100 µM and > 87.7 µM | OVCAR-8 > 100 µM | NCI-H23 > 100 µM | NCI-H226 > 100 µM | RXF 393 > 100 µM | HCT-116 > 100 µM | NCI/ADR-RES > 100 µM | SN12C > 100 µM | HCC 2998 > 100 µM | SK-MEL-5 > 100 µM | EKVX > 91 µM | TK-10 > 100 µM | UO-31 54.2 µM | LOX IMVI > 100 µM | SF-295 > 100 µM | UACC-62 > 100 µM | Hs-578T > 100 µM | A498 > 100 µM | KM12 > 95.1 µM | SF-539 > 100 µM | Malme-3M > 68.1 µM | SF-268 > 78 µM | MCF7 > 100 µM and > 72.9 µM | OVCAR-5 > 66.2 µM | NCI-H522 > 100 µM | M14 > 100 µM
> 67.3 µM: HCT-15
